In paper PMC10791743, “Selective CK1α degraders exert antiproliferative activity against a broad range of human cancer cell lines” (Nature Communications, 2024):
“And” between values parts separate entries of the source, which are not always exact repeats. Equal values may be shown once. “Also recorded” adds a separate entry of the source.

Experiments:
[1] = tested on: panel of AML and ALL cell lines; assay: CTG viability in a panel of AML and ALL cell lines (Fig. 3a); type: cell-based, human; details: for IC50: replicate values
Description: The primary screen was performed in 384-well format using the CellTiter Glo (CTG) luminescent cell viability assay (Promega) as previously described. […] After overnight incubation at 37 °C in a humidified 5% CO2 incubator, cells were treated with compounds in dose–response format using a Pintool on a Biomek FX^P Laboratory Automation Workstation (Beckman Coulter). […] Luminescence signal was measured using an EnVision plate reader (PerkinElmer).
HD-MB03 cell line was obtained from Drs. Milde, Witt and Deubzer[52]. HD-MB03 and MB004 cells were grown in a neurobasal medium supplemented with glutamine, streptomycin, penicillin, B27, EGF, bFGF, and heparin as previously described. MB002 and MB004 cells were obtained from Dr Yoon-Jae Cho[54]. MB002 cells were cultured in 80% neurobasal medium supplemented with glutamine, streptomycin, penicillin, B27, and 20% conditioned media from previous passages; EGF, bFGF, and heparin were also added to the medium. MHH-CALL4, NALM-16, MHH-CALL-2 cells were obtained from the German Collection of Microorganisms and Cell Cultures GmbH (DSMZ, Germany). PER-117 cells were obtained from Telethon Kids Institute (Perth, Australia). The cells were cultured in RPMI1640 medium supplemented with 10% FBS (Hyclone), Penicillin/Streptomycin (100 units/mL), and Glutamine (100 µM) except for MHH-CALL-2 cells where 20% FBS were used. […] OCI-AML3 cells were purchased from DSMZ (ACC 690) and cultured in Alpha-MEM media (Invitrogen) supplemented with 20% FBS and 100 U/ml penicillin–streptomycin. […] Cell identity was confirmed by STR profiling using PowerPlex® Fusion System (Promega).

[2] = Liver microsomes stability assay, human; type: in vitro ADME
Description: page 31: using a REMS Autosampler (World Precision Instruments, Sarasota, […]1 cells were grown for 5 days to reach a consistent confluency level monitored by epithelial voltohmmeter to confirm the intactness of the confluent polarized monolayer. For transport experiments, each cultured monolayer on the 96-well plate was washed twice with a transport buffer (HBSS/25 mM […] The cell-based permeability assay was initiated by the addition of each compound solution (10 μmol/L) into inserts (apical side, A) or receivers (basolateral side, B). After incubated […] (if basal to apical permeability), and concentrations were assessed by UPLC/MS (Waters; Milford, MA). All compounds were tested in triplicates. The A→B (or B→A) apparent permeability coefficients (Papp) of each compound were calculated using the equation (3): […], where dQ/dt equals the flux of a drug across the monolayer, the parameters of A equals the surface area of total insert well, and C0 is the initial concentration of substrate in the donor compartment. The efflux ratio was determined by dividing the Papp in the B-A direction by the Papp in the A-B direction. […] NADPH regenerating agent solutions A and B (Corning GentestTM, Cat. No: 451220) were purchased from Discovery Labware (Woburn, MA). Mouse liver microsomes (CD-1, pooled, GibcoTM, Cat. No: MSMCPL) were obtained from Thermo Fisher Scientific (Fredrick, MD). Pooled human liver microsomes (mixed gender, Cat. No: E0630) were purchased from XenoTech (Lenexa, KS). Stock solutions of test compounds were prepared at 10 mM in DMSO. Sample preparation for microsomal stability was modified from Di's publications3,4. […] and 4 hours) by Labcyte Echo 650 acoustic dispenser (Beckman Coulter Life Sciences, Indianapolis, IN). All compounds were tested in triplicate per time point. […] Plasma stability assay5: The degradation of human or mouse plasma was assessed by monitoring the gradual reduction of the parent compound over specified time intervals (0, 3, 24, and 48 hours). […]

[3] = Homo sapiens, MOLM-13, MOLM-13 cells

Row | Compound | IC50 values / cytotoxicity in panel of AML and ALL cell lines ([1]; CTG) | IC50 ([1]; HNT-34 cells) | IC50 ([1]; Homo sapiens, HNT-34, HNT-34 cells) | IC50 ([1]; Homo sapiens, Kasumi-3, KASUMI-3 cells) | IC50 ([1]; Homo sapiens, MHHCALL4, MHHCALL-4 cells) | IC50 ([1]; Homo sapiens, MHHCALL-2 cells) | IC50 [1, 3] | IC50 ([1]; KASUMI-3 cells) | IC50 ([1]; MHHCALL-4 cells) | IC50 ([1]; MOLM-13 cells) | half-life at 10 µM ([2]; both sexes, human, liver microsomes, pH 7.4, read-out: Microsome stability t1/2) | IC50 ([1]; NALM16 cells) | Ke [2] | t(1/2) [2]
1 | O=C1CCC(N2Cc3cc(Nc4noc5ccccc45)ccc3C2=O)C(=O)N1 (centres unmarked) [SJ3149] | single digit nanomolar range; also recorded: low nanomolar to sub-nanomolar range | 0.0015 µM | 0.001 µM | 0.118 µM | 0.003 µM | 0.002 µM | 0.008 µM | 0.072 µM and 0.0717 µM | 0.004 µM | 0.011 µM and 0.0071 µM | > 10 h |  |  | 
2 | Cc1cccc(C(=O)Nc2ccc3c(c2)CN(C2CCC(=O)NC2=O)C3=O)c1 (centres unmarked) [SJ0040] |  | 2 nM (2×) and 4.9 nM |  |  |  | 0.027 µM | 0.125 µM | 0.016 µM and 0.011 µM and 0.0302 µM | 0.067 µM and 0.073 µM and 0.017 µM | 0.136 µM and 0.0962 µM |  | 0.13 µM and 0.016 µM and 0.025 µM |  | 
3 | O=C1CCC(N2Cc3cc(Nc4noc5ccccc45)ccc3C2=O)C(=O)N1 (centres unmarked) [SJ001043149-1] |  |  |  |  |  |  |  |  |  |  |  |  | -0.00692 | -100.22
